Source: patent US20210122763A1, “OGA INHIBITOR COMPOUNDS” (Janssen Pharmaceutica NV, priority 2018, published 2021)

Legend:
[1] = biological target: T1, recombinant human Meningioma Expressed Antigen 5 (MGEA5), also referred to as O-GlcNAcase (OGA) (Homo sapiens, UniProt O60502); assay: OGA biochemical assay (inhibition of FM-GlcNAc hydrolysis, fluorescence); conditions: for Emax: read-out: Enzymatic Emax (%); for IC50: read-out: Enzymatic hOGA, pIC50 (converted)
T1 construct: Full length OGA enzyme was purchased at OriGene (cat #TP322411); purchased OriGene TP322411
T1 sequence (O60502 1-916): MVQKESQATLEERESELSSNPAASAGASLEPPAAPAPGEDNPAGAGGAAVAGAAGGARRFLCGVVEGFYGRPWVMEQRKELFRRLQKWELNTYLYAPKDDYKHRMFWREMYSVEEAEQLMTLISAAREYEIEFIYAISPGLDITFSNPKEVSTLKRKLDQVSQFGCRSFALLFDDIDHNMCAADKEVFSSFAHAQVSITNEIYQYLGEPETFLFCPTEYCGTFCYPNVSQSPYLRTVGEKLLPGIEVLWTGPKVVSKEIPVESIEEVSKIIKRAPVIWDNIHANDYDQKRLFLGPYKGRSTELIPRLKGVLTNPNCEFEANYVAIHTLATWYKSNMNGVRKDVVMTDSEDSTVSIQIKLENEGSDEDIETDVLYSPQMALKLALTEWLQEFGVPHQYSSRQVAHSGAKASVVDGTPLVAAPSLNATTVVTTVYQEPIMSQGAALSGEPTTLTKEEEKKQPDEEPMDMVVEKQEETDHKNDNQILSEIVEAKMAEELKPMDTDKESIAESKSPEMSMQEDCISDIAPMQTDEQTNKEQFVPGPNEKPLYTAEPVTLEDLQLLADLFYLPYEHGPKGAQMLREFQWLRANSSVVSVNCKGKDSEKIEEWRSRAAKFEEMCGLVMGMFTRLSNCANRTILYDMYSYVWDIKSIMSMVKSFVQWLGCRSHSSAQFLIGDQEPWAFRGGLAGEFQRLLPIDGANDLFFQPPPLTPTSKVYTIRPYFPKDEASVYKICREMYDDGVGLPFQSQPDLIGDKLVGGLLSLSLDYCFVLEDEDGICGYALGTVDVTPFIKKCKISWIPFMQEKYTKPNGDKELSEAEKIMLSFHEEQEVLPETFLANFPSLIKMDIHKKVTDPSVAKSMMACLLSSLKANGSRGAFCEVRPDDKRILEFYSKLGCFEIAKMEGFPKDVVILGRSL
From the text: The assay is based on the inhibition of the hydrolysis of fluorescein mono-B-D-N-Acetyl-Glucosamine (FM-GcNAc) (Mariappa et al. 2015, Biochem J470:255) by the recombinant human Meningioma Expressed Antigen 5 (MGEA5), also referred to as O-GlcNAcase (OGA). The hydrolysis FM-GlcNAc (Marker Gene technologies, cat #M1485) results in the formation of B-D-N-glucosamineacetate and fluorescein. The fluorescence of the latter can be measured at excitation wavelength 485 nm and emission wavelength 538 nm. An increase in enzyme activity results in anincrease in fluorescence signal. Full length OGA enzyme was purchased at OriGene (cat #TP322411). The enzyme was stored in 25 mM Tris.HCl, pH 7.3, 100 mM glycine, 10% glycerol at −20° C. Thiamet G and GlcNAcStatin were tested as reference compounds (Yuzwa et al. 2008 Nature Chemical Biology 4:483; Yuzwa et al. 2012 Nature Chemical Biology 8:393). The assay was performed in 200 mM Citrate/phosphate buffer supplemented with 0.005% Tween-20. 35.6 g Na2HPO4 2H2O (Sigma, #C0759) were dissolved in 1 L water to obtain a 200 mM solution. 19.2 g citric acid (Merck, #1.06580) was dissolved in 1 L water to obtain a 100 mM solution. pH of the sodiumphosphate solution was adjusted with the citric acid solution to 7.2. The buffer to stop the reaction consists of a 500 mM Carbonate buffer, pH 11.0. 734 mg FM-GlcNAc were dissolved in 5.48 mL DMSO to obtain a 250 mM solution and was stored at −20° C. OGA was used at a 2 nM concentration and FM-GcNAc at a 100 uM final concentration. Dilutions were prepared in assay buffer.
50 nl of a compound dissolved in DMSO was dispensed on Black Proxiplate™ 384 Plus Assay plates (Perkin Elmer, #6008269) and 3 μl fl-OGA enzyme mix added subsequently. Plates were pre-incubated for 60 min at room temperature and then 2 μl FM-GlcNAc substrate mix added.
Plates were briefly centrifuged for 1 min at 1000 rpm and incubate at room temperature for 6 h. To stop the reaction 5 μl STOP buffer were added and plates centrifuge again 1 min at 1000 rpm. Fluorescence was quantified in the Thermo Scientific Fluoroskan Ascent or the PerkinElmer EnVision with excitation wavelength 485 nm and emission wavelength 538 nm.
For analysis a best-fit curve is fitted by a minimum sum of squares method. From this an IC50 value and Hill coefficient was obtained. High control (no inhibitor) and low control (saturating concentrations of standard inhibitor) were used to define the minimum and maximum values.

OGA = biological target: T2, OGA (Homo sapiens, UniProt O60502); assay: OGA cellular assay (ICC detection of O-GlcNAcylated proteins in HEK293 cells inducible for P301L mutant human Tau); assay type: cell-based; conditions: 6 hours incubation; for Emax: HEK293, HEK293 cells inducible for P301L mutant human Tau; for EC50: read-out: Cellular hOGA, pEC50 (converted)
T2 construct: HEK293 cells inducible for P301L mutant human Tau (isoform 2N4R) were established at Janssen; endogenous in cells; host or cells: HEK293 cells inducible for P301L mutant human Tau (2N4R)
T2 sequence (O60502 1-916): T1 sequence (O60502 1-916)
Procedure: HEK293 cells inducible for P301L mutant human Tau (isoform 2N4R) were established at Janssen. Thiamet-G was used for both plate validation (high control) and as reference compound (reference EC50 assay validation). OGA inhibition is evaluated through the immunocytochemical (ICC) detection of O-GlcNAcylated proteins by the use of a monoclonal antibody (CTD110.6; Cell Signaling, #9875) detecting 0-GlcNAcylated residues as previously described (Dorfmueller et al. 2010 Chemistry & biology, 17:1250). Inhibition of OGA will result in an increase of 0-GlcNAcylated protein levels resulting in an increased signal in the experiment. Cell nuclei are stained with Hoechst to give a cell culture quality control and a rough estimate of immediate compounds toxicity, if any. ICC pictures are imaged with a Perkin Elmer Opera Phenix plate microscope and quantified with the provided software Perkin Elmer Harmony 4.1.
Cells were propagated in DMEM high Glucose (Sigma, #D5796) following standard procedures. 2 days before the cell assay cells are split, counted and seeded in Poly-D-Lysine (PDL) coated 96-wells (Greiner, #655946) plate at a cell density of 12,000 cells per cm^2 (4,000 cells per well) in 100p of Assay Medium (Low Glucose medium is used to reduce basal levels of GlcNAcylation) (Park et al. 2014 The Journal of biological chemistry 289:13519). At the day of compound test medium from assay plates was removed and replenished with 90 μl of fresh Assay Medium. 10 μl of compounds at a 10 fold final concentration were added to the wells. Plates were centrifuged shortly before incubation in the cell incubator for 6 hours. DMSO concentration was set to 0.2%. Medium is discarded by applying vacuum. For staining of cells medium was removed and cells washed once with 100 μl D-PBS (Sigma, #D8537). From next step onwards unless other stated assay volume was always 50p and incubation was performed without agitation and at room temperature. Cells were fixed in 50 μl of a 4% paraformaldehyde (PFA, Alpha aesar, #043368) PBS solution for 15 minutes at room temperature. […] Before analysis samples were washed 2 times manually for 5 minutes in ICC base buffer.
Imaging is performed using Perkin Elmer Phenix Opera using a water 20× objective and recording 9 fields per well. Intensity readout at 488 nm is used as a measure of O-GlcNAcylation level of total proteins in wells. To assess potential toxicity of compounds nuclei were counted using the Hoechst staining. IC50-values are calculated using parametric non-linear regression model fitting. As a maximum inhibition Thiamet G at a 200 uM concentration is present on each plate. In addition, a concentration response of Thiamet G is calculated on each plate.

[2] = HEK293 cells inducible for P301L mutant human Tau

COc1cc(COC2CCN(C(C)c3nc4c(cc3F)OCCO4)CC2)cc(C)n1 (stereo not shown) [Compound 134]
Emax [1]: 94%
IC50 [1]: 10 nM
Emax (OGA; maximum = Thiamet G 200 uM): 81%
EC50 (OGA; [2]): 63.1 nM

Cc1cc(OC2CCN([C@H](C)c3nc4nc(C)sc4cc3F)CC2)cc(C)n1 (single isomer, unassigned) [Compound 82]
Emax [1]: 97%
IC50 [1]: 631 nM
Emax (OGA; maximum = Thiamet G 200 uM): 18%
EC50 (OGA; [2]): > 1000 nM

Cc1cc(OC2CCN(C(C)c3ccc4c(n3)OCCO4)CC2)c(F)c(C)n1 (stereo not shown) [Compound 121]
Emax [1]: 96%
IC50 [1]: 100 nM
Emax (OGA; maximum = Thiamet G 200 uM): 59%
EC50 (OGA; [2]): 398 nM

C[C@H](c1nc2c(cc1F)OCCO2)N1CCC(Oc2ccc(C#N)nn2)CC1 (single isomer, unassigned) [Compound 85]
Emax [1]: -11%
IC50 [1]: > 10000 nM
Emax (OGA; maximum = Thiamet G 200 uM): -3%
EC50 (OGA; [2]): > 1000 nM

Cc1ncc(OC2CCN(C(C)c3ccc4c(n3)OCCO4)CC2)cc1F (stereo not shown) [Compound 152]
Emax [1]: 93%
IC50 [1]: 100 nM
Emax (OGA; maximum = Thiamet G 200 uM): 42%

Cc1cc(NC2CCN(C(C)c3ccc4c(n3)OCCO4)CC2)cc(C)n1 (stereo not shown) [Compound 78]
Emax [1]: 99%
IC50 [1]: 100 nM
Emax (OGA; maximum = Thiamet G 200 uM): 55%
EC50 (OGA; [2]): 813 nM

Cc1cc(OC2CCN(C(C)c3nc4c(cc3F)OCCO4)CC2)cc(C(F)F)n1 (stereo not shown) [Compound 63]
Emax [1]: 96%
IC50 [1]: 10 nM
Emax (OGA; maximum = Thiamet G 200 uM): 80%
EC50 (OGA; [2]): 79.4 nM

Cc1cc(OC2CCN([C@H](C)c3nc4c(cc3F)OCCO4)CC2)nc(C)n1 (single isomer, unassigned) [Compound 55]
Emax [1]: 97%
IC50 [1]: 200 nM
Emax (OGA; maximum = Thiamet G 200 uM): 14%
EC50 (OGA; [2]): > 1000 nM

COc1cc(C#N)cnc1OC1CCN(C(C)c2ccc3c(n2)OCCO3)CC1 (stereo not shown) [Compound 102]
Emax [1]: 95%
IC50 [1]: 501 nM
Emax (OGA; maximum = Thiamet G 200 uM): 10%
EC50 (OGA; [2]): > 1000 nM

COc1cc(OC2CCN(C(C)c3nc4nc(C)sc4cc3F)CC2)cc(C)n1 (stereo not shown) [Compound 79]
Emax [1]: 101%
IC50 [1]: 3.16 nM
Emax (OGA; maximum = Thiamet G 200 uM): 72%
EC50 (OGA; [2]): 39.8 nM

CC(c1nc2c(cc1F)OCCO2)N1CCC(Oc2cnc(C(F)(F)F)nc2)CC1 (stereo not shown) [Compound 168]
Emax [1]: 96%
IC50 [1]: 12.6 nM
Emax (OGA; maximum = Thiamet G 200 uM): 75%
EC50 (OGA; [2]): 200 nM

Cc1cc(OC2(CF)CCN(C(C)c3ccc4c(n3)OCCO4)CC2)cc(C)n1 (stereo not shown) [Compound 132]
Emax [1]: 63%
IC50 [1]: 6310 nM
Emax (OGA; maximum = Thiamet G 200 uM): 24%
EC50 (OGA; [2]): > 1000 nM

Cc1cc(C)c(OC2CCN(C(C)c3nc4c(cc3F)OCCO4)CC2)nn1 (stereo not shown) [Compound 88]
Emax [1]: 98%
IC50 [1]: 100 nM
Emax (OGA; maximum = Thiamet G 200 uM): 59%
EC50 (OGA; [2]): 501 nM

Cc1cc(OC2CCN(C(C)c3cc4nc(C)sc4cc3F)CC2)nc(C)n1 (stereo not shown) [Compound 38]
Emax [1]: 101%
IC50 [1]: 15.8 nM
Emax (OGA; maximum = Thiamet G 200 uM): 64%
EC50 (OGA; [2]): 251 nM

Cc1cc(OC2CCN(C(C)c3nc4c(cc3F)OCCO4)CC2)cnc1C (stereo not shown) [Compound 166]
Emax [1]: 98%
IC50 [1]: 10 nM
Emax (OGA; maximum = Thiamet G 200 uM): 85%
EC50 (OGA; [2]): 63.1 nM

Cc1cc(C#N)cnc1OC1CCN(C(C)c2ccc3c(n2)OCCO3)CC1 (stereo not shown) [Compound 97]
Emax [1]: 94%
IC50 [1]: 398 nM
Emax (OGA; maximum = Thiamet G 200 uM): 20%
EC50 (OGA; [2]): > 1000 nM

COc1cc(OC2CCN(C(C)c3ccc4sc(C)nc4n3)CC2)cc(C)n1 (single isomer, unassigned) [Compound 24]
Enzymatic Emax (%) [1]: 98%
IC50 [1]: 20 nM
Cellular Emax (%) (OGA; HEK293 cells inducible for P301L mutant human Tau, maximum = Thiamet G 200 uM): 72%
EC50 (OGA; [2]): 100 nM

CC(c1nc2c(cc1F)OCCO2)N1CCC(Oc2ccc(C#N)cn2)CC1 (stereo not shown) [Compound 49]
Emax [1]: 99%
IC50 [1]: 20 nM
Emax (OGA; maximum = Thiamet G 200 uM): 81%
EC50 (OGA; [2]): 288 nM

CC(c1ccc2c(n1)OCCO2)N1CCC(Oc2cnc(C3CC3)nc2)CC1 (stereo not shown) [Compound 120]
Emax [1]: 98%
IC50 [1]: 50.1 nM
Emax (OGA; maximum = Thiamet G 200 uM): 87%
EC50 (OGA; [2]): 251 nM

CC(c1ccc2c(n1)OCCO2)N1CCC(C)(Oc2ccc(F)cc2)CC1 (stereo not shown) [Compound 131]
Emax [1]: 70%
IC50 [1]: 3980 nM
Emax (OGA; maximum = Thiamet G 200 uM): -4%
EC50 (OGA; [2]): > 1000 nM

Cc1cc(COC2CCN(C(C)c3ccc4c(n3)OCC4)CC2)cc(C)n1 (stereo not shown) [Compound 154]
Emax [1]: 94%
IC50 [1]: 39.8 nM
Emax (OGA; maximum = Thiamet G 200 uM): 81%
EC50 (OGA; [2]): 158 nM

Cc1cc(OC2CCN(C(C)c3ccc4c(c3)OCCO4)CC2)cc(C)n1 (stereo not shown) [Compound 25]
Emax [1]: 96%
IC50 [1]: 501 nM
Emax (OGA; maximum = Thiamet G 200 uM): 56%
EC50 (OGA; [2]): 631 nM

Cc1ccnc(OC2CCN(C(C)c3nc4c(cc3F)OCCO4)CC2)c1 (stereo not shown) [Compound 161]
Emax [1]: 97%
IC50 [1]: 20 nM
Emax (OGA; maximum = Thiamet G 200 uM): 83%
EC50 (OGA; [2]): 158 nM
